US20050215544A1, “Methods of treating HIV infection” (priority 2004, published 2005)

Key:
[1] = system: HIV-1 LAI; assay: microbe, parasite or virus in culture
Experimental: (§1) Virus and cell lines. The T-cell lines, MT-2 and PM-1 were obtained through the AIDS Research and Reference Reagent Program, NIAID, and were contributed by Dr. D. Richman and Dr. R. Gallo, respectively. Both cell lines were cultured in RPMI 1640 medium supplemented with 10% fetal bovine serum, 2 mM L-glutamine and sub-cultured twice a week. The LAI strain of HIV-1 was obtained from the Fred Hutchinson Cancer Research Center, and the Bal strain was from NIH. Both virus stocks were amplified and titered in MT-2 cells (LAI) and PM-1 cells (Bal) using a virus infectivity assay.
(§2) Drug Susceptibility and Cytotoxicity Assays. For drug susceptibility assays, MT-2 cells were infected with HIV-1 LAI (or PM-1 cells with HIV-1 Bal) at an MOI of 0.005, and seeded into 96-well microtiter plates ([…] cells/ml) containing serial dilutions of test compounds. […] Each drug ratio consisted of an array of 3-fold serial dilutions, and was performed in quadruplicate. The plates were incubated at 37° C./5% CO2. The MT-2 cells infected with HIV-1 LAI were incubated for 5 days. On day-five post-infection, 20 μl from each well was harvested and quantitated by a reverse transcriptase (RT) assay, or in samples involving non-nucleoside RT inhibitors, an MTS assay. The PM-1 cells infected with HIV-1 Bal and used for studying the combinations with CCR5 inhibitors were incubated for six days. On day-six post-infection, 20 μl from each well was harvested, 20- and 50-fold diluted and quantitated by p24 assay. Cytotoxicity assays were performed using uninfected cells, exposed to the same drug combinations, and incubated for six days. Cell viability was determined by an MTS assay. The CC50 values were calculated by using the exponential form of the median effect equation as mentioned below for calculation of EC50.
(§3) In this equation, Fa stands for “fraction affected,” and represents the fraction of the viral load that has been inactivated. […] ED50 is drug concentration that is expected to reduce the amount of virus by 50%, and m is a parameter that reflects the slope of the concentration-response curve.
In carrying out the combination experiments below, the EC50 for Compound 1 and each comparator compound was determined during the course of each study, and used in the subsequent data analysis.

[2] = system: HIV-1 LAI; assay: Two-drug combination antiviral assay with Compound 1 (combination indices, Chou and Rideout); assay type: cell-based; settings: combination with Compound 1; for Combination Indices at 50% HIV Inhibition (Confidence Interval) / Combination Indices at 75% HIV Inhibition (Confidence Interval) / Combination Indices at 90% HIV Inhibition (Confidence Interval): 95% CI in parenthesis; for Overall Result of two-drug combination: all ratios and inhibition levels
Experimental: as §1, §2
Analysis of Drug Combination Effects. For determination of CI values, drugs were diluted in a fixed ratio and multiple ratios were analyzed. The drug serial dilutions spanned a range of concentrations near the EC50 value of each compound, so that equivalent antiviral activities could be compared. Concentration-response curves were estimated for each individual drug and every combination using the median-effect equation. The equation was fit using a nonlinear regression routine (Proc Nlin) in PC SAS version 8.01 (SAS Institute Inc., SAS Version 8.01, Cary, NC: SAS Institute Inc., 1990).
as §3
To assess antiviral effects of different drug combination treatments, combination indices (CIs) were calculated according to Chou and Rideout. The combination index was computed as CI=[D]1/[Dm]1+[D]2/[Dm]2
In this equation [Dm]1 and [Dm]2 are the concentrations of drugs that would individually produce a specific level of effect, while [D]1 and [D]2 are the concentrations of drugs in combination that would produce the same level of effect.
Theoretically, additivity is implied if the CI is equal to one, synergy if the CI is less than one, and antagonism if the CI is greater than one. […] At best, we can construct a range that contains the likely values for the CI, given the noise in the data. In this report, these ranges are reported in parentheses next to each point estimate of the CI. […] If the range fell entirely above 1.0, we would infer antagonistic behavior. If the range were to include 1.0, we would infer additivity.

[3] = Human immunodeficiency virus 1, MT2, 120 h
[4] = EC50 ratio 1:1 (Compound 1 to comparator)
[5] = EC50 ratio 1:2.5 (Compound 1 to comparator)
[6] = EC50 ratio 2.5:1 (Compound 1 to comparator)

SMILES	EC50 [1, 3]	Combination Indices at 50% HIV Inhibition (Confidence Interval) [2, 4]	Combination Indices at 75% HIV Inhibition (Confidence Interval) [2, 4]	Combination Indices at 90% HIV Inhibition (Confidence Interval) [2, 4]	Combination Indices at 50% HIV Inhibition (Confidence Interval) [2, 5]	Combination Indices at 75% HIV Inhibition (Confidence Interval) [2, 5]	Combination Indices at 90% HIV Inhibition (Confidence Interval) [2, 5]	Combination Indices at 50% HIV Inhibition (Confidence Interval) [2, 6]	Combination Indices at 75% HIV Inhibition (Confidence Interval) [2, 6]	Combination Indices at 90% HIV Inhibition (Confidence Interval) [2, 6]	Overall Result of two-drug combination [2]	Overall Result of two-drug combination ([2]; listed as nevirapine)	EC50 ([1]; MT-2 cells infected with HIV-1 LAI, MOI 0.005, 5 days, single drug)
Nc1ccn([C@@H]2CS[C@H](CO)O2)c(=O)n1 [Lamivudine]	30 nM	0.57 (0.41, 0.73)	0.73 (0.44, 1.02)	1.00 (0.37, 1.62)	0.17 (0.13, 0.21)	0.33 (0.23, 0.43)	0.70 (0.33, 1.06)	0.18 (0.13, 0.22)	0.38 (0.26, 0.49)	0.85 (0.40, 1.29)			
Cc1cccc(C)c1OCC(=O)N[C@@H](Cc1ccccc1)[C@@H](O)C[C@H](Cc1ccccc1)NC(=O)[C@H](C(C)C)N1CCCNC1=O [Lopinavir]	5 nM	0.68 (0.49, 0.87)	0.80 (0.48, 1.11)	0.95 (0.36, 1.55)	0.74 (0.57, 0.92)	0.56 (0.37, 0.74)	0.42 (0.21, 0.64)	0.65 (0.44, 0.86)	0.77 (0.43, 1.11)	0.92 (0.28, 1.57)	Additive-		
Cc1c(O)cccc1C(=O)N[C@@H](CSc1ccccc1)[C@H](O)CN1C[C@H]2CCCC[C@H]2C[C@H]1C(=O)NC(C)(C)C [Nelfinavir]	6 nM	0.38 (6.31, 0.46)	0.56 (0.47, 0.72)	0.83 (0.47, 1.18)	0.56 (0.46, 0.65)	0.89 (0.68, 1.10)	1.43 (0.89, 1.97)	0.17 (0.13, 0.21)	0.40 (0.29, 0.52)	0.95 (0.49, 1.42)	Additive-		
Cc1ccnc2c1NC(=O)c1cccnc1N2C1CC1 [Nevirapine]	127 nM	0.13 (0.11, 0.16)	0.17 (0.13, 0.22)	0.24 (0.14, 0.33)	0.32 (0.23, 0.40)	0.72 (0.45, 0.99)	1.69 (0.63, 2.75)	0.37 (0.29, 0.44)	0.76 (0.54, 0.98)	1.60 (0.86, 2.34)	Additive-	additive to synergistic	
CC(C)c1nc(CN(C)C(=O)N[C@H](C(=O)N[C@@H](Cc2ccccc2)C[C@H](O)[C@H](Cc2ccccc2)NC(=O)OCc2cncs2)C(C)C)cs1 [Ritonavir]	5 nM	0.25 (0.19, 0.31)	0.38 (0.26, 0.50)	0.58 (0.28, 0.88)	0.16 (0.12, 0.20)	0.25 (0.18, 0.32)	0.40 (0.19, 0.60)	0.40 (0.23, 0.57)	0.66 (0.29, 1.04)	1.11 (0.05, 2.17)	Additive-		
CC(C)(C)NC(=O)[C@@H]1C[C@@H]2CCCC[C@@H]2CN1C[C@@H](O)[C@H](Cc1ccccc1)NC(=O)[C@H](CC(N)=O)NC(=O)c1ccc2ccccc2n1 [Saquinavir]	4 nM	0.50 (0.40, 0.61)	0.92 (0.64, 1.19)	1.71 (0.90, 2.51)	0.24 (0.21, 0.26)	0.32 (0.27, 0.36)	0.43 (0.33, 0.52)	0.14 (0.12, 0.16)	0.31 (0.25, 0.37)	0.68 (0.45, 0.92)	Additive-		
Cc1cn([C@H]2C=C[C@@H](CO)O2)c(=O)[nH]c1=O [Stavudine]	318 nM	0.25 (0.18, 0.33)	0.53 (0.32, 0.74)	1.12 (0.38, 1.86)	0.14 (0.10, 0.19)	0.22 (0.13, 0.32)	0.36 (0.10, 0.62)	0.28 (0.24, 0.32)	0.39 (0.32, 0.47)	0.55 (0.38, 0.73)	Moderate-		
C[C@H](Cn1cnc2c(N)ncnc21)OCP(=O)(O)O [Tenofovir]		0.11 (0.09, 0.13)	0.22 (0.17, 0.27)	0.54 (0.31, 0.76)	0.13 (0.11, 0.15)	0.23 (0.18, 0.28)	0.50 (0.30, 0.70)	0.16 (0.13, 0.19)	0.22 (0.17, 0.28)	0.38 (0.22, 0.54)	Synergistic		13 nM
Nc1ccn([C@H]2CC[C@@H](CO)O2)c(=O)n1 [Zalcitabine]	12 nM	0.19 (0.15, 0.23)	0.35 (0.26, 0.45)	0.75 (0.40, 1.09)	0.38 (0.31, 0.45)	0.37 (0.28, 0.47)	0.42 (0.24, 0.61)	0.22 (0.18, 0.25)	0.28 (0.22, 0.34)	0.38 (0.24, 0.52)	Synergistic		
